# Measured values reported in ChEMBL document CHEMBL1667776, “Pharmacophore-based design, synthesis, and biological evaluation of novel chloro-pyridazine piperazines as human rhinovirus (HRV-3) inhibitors” (Bioorg Med Chem Lett, 2011).
# System: rhinovirus B14
# Assay: Antiviral activity against HRV-14
# Format: functional, organism-based
# Settings: Rhinovirus B
row,EC50 [µg/mL],Structure (SMILES)
1,0.032,CCOc1nc2cc(OCCC3CCN(c4ccc(C)nn4)CC3)ccc2o1
2,0.0032,CCOC(=O)c1ccc(OCCC2CCN(c3ccc(C)nn3)CC2)cc1 [PIRODAVIR]
3,0.03,Cc1cc(CCCOc2c(C)cc(-c3noc(C(F)(F)F)n3)cc2C)on1 [PLECONARIL]
